In brackets after ≈: the same amount, converted by molar mass.
What was measured:
chorioallantoic membrane = assay: Hen's egg test-chorioallantoic membrane (HET-CAM); design: species or system white leghorn eggs
Protocol: The samples were all tested on the HET-CAM at 1 mg/ml, providing a range of 3.6 mM for linolenic acid to 5 mM for lauric acid. […] Results from the controls and an example of a tested candidate are illustrated in Fig. 5.
The HET-CAM was performed as described by Alany and coworkers ([20]). Fertilized white leghorn eggs (Henry Stewart and Co. Ltd., Fakenham, Norfolk, United Kingdom) were checked for damage and incubated at 37°C with 60% to 70% relative humidity. At day 4, the eggs were removed from their shells and placed in incubation chambers. At day 9, the CAMs were tested. This was done by applying 200 µl of the testing material and monitoring inflammatory responses at 30, 120, and 300 s. At each of these time points, the conjunctival irritation potential of the test substance on the CAMs was evaluated by assessing them against the published scoring system ([20]).

[1] = test system: N. gonorrhoeae strain NCCP11945; assay: Growth inhibition screen on GC solid media containing 1 mM candidate; format: cell-based, Neisseria gonorrhoeae; conditions: 1 mM candidate in GC agar media; Yes = strain NCCP11945 did not grow
Protocol: (§1) To find potential candidates, 37 organic acids, esters, and salts were tested in a two-tiered screening process. These candidates were chosen based on the carbon chain lengths of the fatty acids, the presence or absence of saturation, and modifications to represent a diverse selection of organic acid candidates. The first screen aimed to determine the ability of each compound to inhibit the growth of N. gonorrhoeae strain NCCP11945 at 1 mM in GC solid media (Table 1). This strain was chosen due to its relatively recent isolation, its antibiotic resistance profile, and the availability of a complete genome sequence. Those candidates able to inhibit the growth of N. gonorrhoeae strain NCCP11945 were investigated in a second assay. The second assay tested the ability of each compound to cause at least a 4-log reduction in viable bacteria at 1 mM with a 2-min exposure time (Table 1).
(§2) The well-characterized N. gonorrhoeae NCCP11945 strain ([36]) was used in the screening stage. Eight isolates obtained from Public Health England, representing circulating isolates from various European locations, were used in the log reduction assays. All isolates were cultured for 24 h prior to testing by plating on GC solid medium (Oxoid Limited, Hampshire, United Kingdom) with Kellogg supplements and incubation at 37°C and 5% CO2 ([37]).

[2] = test system: N. gonorrhoeae strain NCCP11945; assay: Log reduction assay in GC broth, 2-min exposure; format: cell-based, Neisseria gonorrhoeae; conditions: for log reduction at 1000 µM: Neisseria gonorrhoeae, NCCP11945, 2 min, 1 mM, read-out: Log reduction at 1 mM (calculated log reduction in viable bacteria)
Protocol: as §1
(§3) Log reductions were done as described by Bergsson and coworkers ([18]). Briefly, cells were suspended in GC broth (18 g/liter GC base [Oxoid, Limited] with added defined supplements) to an optical density at 520 nm of 0.3, which is approximately equivalent to 10^7 to 10^8 cells per ml ([38]). […] The contents of the tubes were then mixed at room temperature for 2 min and immediately diluted in a 10-fold dilution series to 10^−4. The dilutions were plated by spreading 10 µl on a quarter of a plate; a 100-µl neat solution was also plated. Plates were then incubated at 37°C for 48 h, with all samples plated in duplicate. […] Additional testing at lower concentrations was also done on the eight clinical isolates of European origin.

[3] = test system: nine gonococcal isolates (strain NCCP11945 and eight isolates from Public Health England); assay: Minimum bactericidal concentration by log reduction against nine gonococcal isolates; format: cell-based, Neisseria gonorrhoeae; conditions: 2 min; for Killing of all gonococcal cells for all isolates: 1 mM; for MBC: Neisseria gonorrhoeae, lowest concentration giving mean log reduction above 4 from a 2-min exposure, read-out: MBC
Source text: The seven candidates were further tested against nine gonococcal isolates, including strain NCCP11945 and eight isolates from Public Health England, to find their minimal bactericidal concentration (MBC). This was defined as the lowest concentration tested to give an average 4-log10 reduction in bacterial count after a 2-min exposure. […] Any candidate that killed all gonococcal cells in the cell suspension was given a log reduction score of six.
as §2, §3

bovine cornea = assay: Bovine corneal opacity and permeability (BCOP) test
Protocol: Bovine eyes were collected from a local slaughter house (ABP, Guildford, Surrey, United Kingdom) and were transported in cold saline solution for testing at the laboratory. Each eye was first visually examined for signs of damage before use. The test was conducted as detailed by Abdelkader and coworkers ([21]). The exposure time of the test substances was 30 s. The selected bactericidal compounds were tested at 1 mM in saline solution, with a corresponding vehicle control (1% ethanol–saline solution) also performed. […] The test area of the cornea was then washed with 10 ml saline solution. Corneal damage to the test area was assessed by fluorescein staining and examination under a cobalt blue filter. Pathological scoring based on opacity, epithelial integrity, and epithelial detachment was done in accordance with previous publications ([19]). Each of the seven lead candidates was tested in triplicate, and each test was performed on a separate day using a different batch of eyeballs. Corneal histology was done as outlined by Abdelkader and coworkers ([21]) by evaluating the damage to the epithelial layer and stroma of the cornea after hematoxylin and eosin staining.

bovine RBCs = assay: Red blood cell (RBC) lysis assay; format: cell-based; conditions: H50 = concentration to lyse 50% of RBCs; MBC from Table 1
Protocol: Whole bovine blood was obtained from a local slaughter house (ABP), adding 90 ml blood to 10 ml 110 mM trisodium citrate anticoagulant. RBCs were isolated the same day. The RBCs were washed by three repeats of centrifugation (1,500 × g for 10 min) and resuspension in phosphate-buffered saline (PBS) with 10 mM glucose (PBSG). Testing was done following the guidelines of the European Union Reference Laboratory for alternatives to animal testing (EURL-ECVAM) ([22]). The organic acids were solubilized in dimethyl sulfoxide (DMSO) and diluted to a maximum DMSO concentration of 10%. In a 2-ml centrifuge tube, 750 µl of the sample was added to 250 µl RBCs. Controls used in the assay were a complete lysis control (deionized water) and a fragility control (PBSG–10% DMSO). Samples were shaken at room temperature for 1 h and then centrifuged at 14,000 × g for 2 min. An aliquot of 750 µl of the supernatant was taken and its absorbance at 451 nm measured.

S. aureus = test system: S. aureus; design: method as in PMID 22808139; conditions: continuous passage on sublethal concentrations for a year; cited from earlier work
[4] = test system: gonococcal cells (isolate NCCP 11945); assay: Log reduction in artificial tear fluid with or without calcium chloride; format: cell-based, Neisseria gonorrhoeae; conditions: calcium 1 mM; Fig. 2
Protocol: The antigonococcal properties of the seven selected fatty acids were tested in artificial tear fluid, which contained calcium chloride. The addition of 1 mM lauric acid, tridecanoic acid, or sodium dodecanoate gave no reduction in bacterial cell number after exposure, in contrast to the results seen when they were tested in culture medium (Fig. 2). […] This was most likely due to the negative effect of calcium on the aqueous solubility of these candidates.
Artificial tear fluid was made as described by Mirejovsky and others ([39]) with or without calcium chloride. […] As with the previous log reductions, 10^7 gonococcal cells (isolate NCCP 11945) were suspended in GC broth. The cell suspension was centrifuged to remove the culture medium, and the bacteria were resuspended in the tear fluid. This was then added to the concentrated organic acid candidates. The cells were then enumerated again after 2 min of exposure to estimate any reduction in cell number due to the exposure to the organic acid.

C. trachomatis = test system: C. trachomatis; design: method as in PMID 9736551; conditions: cited from earlier work
[5] = maximum score 6 = all cells killed

Compound | HET-CAM irritancy / reaction at site of application (chorioallantoic membrane) | Growth inhibition [1] | Log reduction at 1 mM: at least a 4-log reduction in viable bacteria (Yes/No) [2] | log reduction at 1000 µM [2, 5] | Killing of all gonococcal cells for all isolates [3] | MBC [3] | also measured
CC(C)=O [Acetone, acetone] | Medium Irritant | – | – | – | – | – | –
CC/C=C\C/C=C\C/C=C\CCCCCCCC(=O)O [Linolenic acid] | – | Yes | Yes | > 6 | did not | 500 µM (≈ 139 µg/mL) | Mean cumulative BCOP score (bovine cornea; 1 mM in saline solution, 30 s exposure, triplicate): lower than 0.5; Fluorescein staining of cornea (bovine cornea; 1 mM, around rubber application ring): any sign of fluorescein staining; BCOP irritancy classification (bovine cornea; candidates 1 mM in saline, controls 0.5 M NaOH, 100% acetone, 30 s exposure): nonirritants; H50 concentration relative to MBC (bovine RBCs): lower than their minimum bactericidal concentration
CCCCCCCCCCCC(=O)OCC(O)CO (centres unmarked) [Monolaurin] | – | Yes | No | – | – | – | Log reduction at 1 mM (calculated log reduction in viable bacteria) [2, 5]: 3.4 log10; Development of antimicrobial resistance (S. aureus): did not develop
CCCC/C=C\CCCCCCCC(=O)O [Myristoleic acid] | – | Yes | Yes | > 6 | killed all gonococcal cells for all isolates | 500 µM (≈ 113 µg/mL) | Effect of calcium in artificial tear fluid on antimicrobial effect [4]: unaffected; Activity against C. trachomatis (C. trachomatis): ineffective
[Na+].[OH-] [Sodium Hydroxide, sodium hydroxide, reference compound] | Strong Irritant | – | – | – | – | – | Corneal opacity, fluorescein staining and histology of epithelial layer (bovine cornea; Fig. 4): complete detachment
